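Grown in 96-well plates, cells were treated for 48 hours with each compound at five concentrations. Insufficient inhibition: endpoint recorded as highest concentration tested. GI50 is the concentration that inhibits growth by half.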 Active and inactive are the calls of the source. Rule as the data show it: active = GI50 up to about 1.1 µM and inactive = higher.
Experiments:
Assay in all cases: growth of human tumour cells (NCI), 48 h
MDA-N = tested on: MDA-N
DU-145 = tested on: DU-145
ACHN = tested on: ACHN
HT-29 = tested on: HT-29
RPMI-8226 = tested on: RPMI-8226
IGROV-1 = tested on: IGROV-1
SK-MEL-2 = tested on: SK-MEL-2
UACC-62 = tested on: UACC-62
T47D = tested on: T47D
SW-620 = tested on: SW-620
COLO 205 = tested on: COLO 205
A549 = tested on: A549
K562 = tested on: K562
OVCAR-5 = tested on: OVCAR-5
TK-10 = tested on: TK-10
RXF 393 = tested on: RXF 393
U-251 = tested on: U-251
NCI/ADR-RES = tested on: NCI/ADR-RES
HCC 2998 = tested on: HCC 2998

Measured: GI50

Cc1nc2nc3c(ncn3COCCO)c(O)n2c1C(c1ccccc1)(c1ccccc1)c1ccccc1
inactive: MDA-N 13.5 µM | DU-145 12.5 µM | ACHN 18 µM | HT-29 11.7 µM | RPMI-8226 12 µM | IGROV-1 14 µM | SK-MEL-2 14.5 µM | UACC-62 11.4 µM | T47D 9.27 µM | SW-620 19.5 µM | COLO 205 14.6 µM | A549 18.5 µM | K562 9.25 µM | OVCAR-5 18.7 µM | TK-10 16.6 µM | RXF 393 12.8 µM | U-251 14.1 µM | NCI/ADR-RES 1.55 µM | HCC 2998 13.6 µM

NC(=O)CC1(O)C=CC(=O)C=C1
inactive: MDA-N > 100 µM | DU-145 > 100 µM | ACHN > 100 µM | HT-29 > 100 µM | RPMI-8226 > 100 µM | IGROV-1 > 100 µM | SK-MEL-2 > 100 µM | UACC-62 > 100 µM | T47D > 100 µM | SW-620 > 100 µM | COLO 205 > 100 µM | A549 > 100 µM | K562 > 100 µM | OVCAR-5 > 100 µM | TK-10 > 100 µM | RXF 393 > 100 µM | U-251 > 100 µM | NCI/ADR-RES > 100 µM | HCC 2998 > 100 µM

CC(NC1=NCCO1)c1ccsc1 (stereo unspecified)
inactive: MDA-N 24.2 µM | DU-145 43.1 µM | ACHN 44.9 µM | HT-29 15.2 µM | RPMI-8226 7.52 µM | IGROV-1 34.8 µM | SK-MEL-2 21.9 µM | UACC-62 17.6 µM | T47D 33.3 µM | SW-620 21.5 µM | COLO 205 17.9 µM | A549 39.4 µM | K562 21.4 µM | OVCAR-5 > 100 µM | TK-10 65.5 µM | RXF 393 33.5 µM | U-251 18.2 µM | NCI/ADR-RES > 100 µM | HCC 2998 69.3 µM

CN(C)c1ccc(/C=C2\C[C@H]3[C@@H]4CCc5cc(OCCN6CCCC6)ccc5[C@H]4CC[C@]3(C)[C@H]2O)cc1
inactive: MDA-N 14.8 µM | DU-145 13.1 µM | ACHN 18.1 µM | HT-29 3.57 µM | RPMI-8226 8.28 µM | IGROV-1 16.1 µM | SK-MEL-2 19.3 µM | UACC-62 20 µM | T47D 23.3 µM | SW-620 6.53 µM | COLO 205 13.5 µM | A549 6.32 µM | K562 4.74 µM | OVCAR-5 14.7 µM | TK-10 5.5 µM | RXF 393 13.7 µM | U-251 3.75 µM | NCI/ADR-RES 19.3 µM | HCC 2998 5.7 µM

COc1cccc(Nc2nc(N)nc(N)c2N)c1
inactive: MDA-N 19.5 µM | DU-145 > 100 µM | ACHN 42.6 µM | HT-29 40.7 µM | RPMI-8226 24.9 µM | IGROV-1 35.1 µM | SK-MEL-2 > 100 µM | UACC-62 58.2 µM | T47D 35.6 µM | SW-620 31.8 µM | COLO 205 34.4 µM | A549 > 100 µM | K562 37.2 µM | OVCAR-5 > 100 µM | TK-10 > 100 µM | RXF 393 > 100 µM | U-251 76.9 µM | NCI/ADR-RES > 100 µM | HCC 2998 98.2 µM

Oc1c(C(O)(c2ccccc2)c2ccc3ccccc3c2O)ccc2ccccc12
inactive: MDA-N 12.2 µM | DU-145 15.6 µM | ACHN 10.5 µM | HT-29 17 µM | RPMI-8226 2.11 µM | IGROV-1 7.36 µM | SK-MEL-2 12.4 µM | UACC-62 10.6 µM | T47D 2.96 µM | SW-620 11.2 µM | COLO 205 17.2 µM | A549 12.1 µM | K562 2.88 µM | OVCAR-5 17.8 µM | TK-10 13 µM | RXF 393 8.87 µM | U-251 9.31 µM | NCI/ADR-RES 13.2 µM | HCC 2998 6.87 µM

CN(C)Cc1cc(C(=O)/C=C/c2c(F)cccc2Cl)cc(CN(C)C)c1O
inactive: MDA-N 13 µM | DU-145 8.77 µM | ACHN 3.9 µM | HT-29 10.9 µM | RPMI-8226 17.2 µM | IGROV-1 5.47 µM | SK-MEL-2 15.6 µM | UACC-62 12.3 µM | T47D 14.9 µM | SW-620 9.57 µM | COLO 205 10.8 µM | A549 14.3 µM | K562 4.09 µM | OVCAR-5 18.4 µM | TK-10 3.04 µM | RXF 393 2.69 µM | U-251 10.8 µM | NCI/ADR-RES 17 µM | HCC 2998 13.1 µM

Fc1cc(C2=Nn3c(CNc4ccc(Cl)cc4)nnc3S/C2=C\c2ccc(-c3ccc(Cl)cc3)o2)c(Cl)cc1Cl
inactive: MDA-N > 100 µM | DU-145 65 µM | ACHN 34.9 µM | HT-29 32.8 µM | RPMI-8226 23.2 µM | IGROV-1 17.7 µM | SK-MEL-2 22.6 µM | UACC-62 13.6 µM | T47D 41.7 µM | SW-620 > 100 µM | COLO 205 14.3 µM | A549 35.6 µM | K562 11.9 µM | OVCAR-5 18.7 µM | TK-10 17.5 µM | RXF 393 13.4 µM | U-251 18.6 µM | NCI/ADR-RES 6.53 µM | HCC 2998 57.8 µM

COP(=O)(O)/C=C/C(NC(=O)C(Cl)(Cl)Cl)c1ccccc1 (stereo unspecified)
inactive: MDA-N > 100 µM | DU-145 > 100 µM | ACHN > 100 µM | HT-29 > 100 µM | RPMI-8226 > 100 µM | IGROV-1 > 100 µM | SK-MEL-2 > 100 µM | UACC-62 > 100 µM | T47D > 100 µM | SW-620 > 100 µM | COLO 205 > 100 µM | A549 > 100 µM | K562 > 100 µM | OVCAR-5 > 100 µM | TK-10 > 100 µM | RXF 393 > 100 µM | U-251 > 100 µM | NCI/ADR-RES > 100 µM | HCC 2998 > 100 µM

CSC[C@H](NC(=O)COc1cccc2cnccc12)C(=O)NC(Cc1ccccc1)C(O)C(=O)N1CSC[C@H]1C(=O)NC(C)(C)C (stereo partly specified)
inactive: MDA-N 38.4 µM | DU-145 42.8 µM | ACHN 24.4 µM | HT-29 33.7 µM | RPMI-8226 23.6 µM | IGROV-1 > 100 µM | SK-MEL-2 > 100 µM | UACC-62 57.3 µM | T47D 36.6 µM | SW-620 > 100 µM | COLO 205 27.5 µM | A549 32.4 µM | K562 32.5 µM | OVCAR-5 > 100 µM | TK-10 > 100 µM | RXF 393 29.2 µM | U-251 95.3 µM | NCI/ADR-RES > 100 µM | HCC 2998 > 100 µM

CCOC(=O)C1Cc2c(cc3c4c(cccc24)N(C(C)=O)C3)N(C)C1 (stereo unspecified)
inactive: MDA-N 1.67 µM | DU-145 > 100 µM | ACHN 7.91 µM | HT-29 > 100 µM | RPMI-8226 > 100 µM | IGROV-1 5.83 µM | SK-MEL-2 > 100 µM | UACC-62 13.4 µM | T47D 5.58 µM | SW-620 4.86 µM | COLO 205 > 100 µM | A549 > 100 µM | K562 4.39 µM | OVCAR-5 17.7 µM | TK-10 > 100 µM | RXF 393 4.13 µM | U-251 4.93 µM | NCI/ADR-RES 1.64 µM | HCC 2998 > 100 µM

NCCCCc1cc(O)c2c(c1O)C(=O)c1ccccc1C2=O
inactive: MDA-N 14.9 µM | DU-145 12 µM | ACHN 11.2 µM | HT-29 4.19 µM | RPMI-8226 7.13 µM | IGROV-1 8 µM | SK-MEL-2 17.4 µM | UACC-62 17.5 µM | T47D 18.1 µM | SW-620 6.53 µM | COLO 205 3.94 µM | A549 5.05 µM | K562 3.1 µM | OVCAR-5 13.3 µM | TK-10 15.4 µM | RXF 393 12.9 µM | U-251 9.75 µM | NCI/ADR-RES 12.6 µM | HCC 2998 12.6 µM

CC1(C)[N+]([O-])=[N+]([O-])C1(Br)c1ccccc1 (stereo unspecified)
inactive: MDA-N > 100 µM | DU-145 79.1 µM | ACHN > 100 µM | HT-29 39.3 µM | RPMI-8226 42.7 µM | IGROV-1 > 100 µM | SK-MEL-2 > 100 µM | UACC-62 > 100 µM | T47D > 100 µM | SW-620 > 100 µM | COLO 205 > 100 µM | A549 > 100 µM | K562 85.7 µM | OVCAR-5 > 100 µM | TK-10 > 100 µM | RXF 393 25.8 µM | U-251 > 100 µM | NCI/ADR-RES 43.9 µM | HCC 2998 > 100 µM

CC(C)=CCC[C@@H](C)C1=C(O)C(=O)C(C)=C(N[C@H](C)c2ccccc2)C1=O
inactive: MDA-N 7.23 µM | DU-145 6.53 µM | ACHN 3.72 µM | HT-29 3.78 µM | RPMI-8226 6.31 µM | IGROV-1 3.8 µM | SK-MEL-2 10.2 µM | UACC-62 2.81 µM | T47D 4.31 µM | SW-620 5.92 µM | COLO 205 4.33 µM | A549 3.28 µM | K562 6.64 µM | OVCAR-5 16.3 µM | TK-10 8.17 µM | RXF 393 6.71 µM | U-251 5.51 µM | NCI/ADR-RES 1.3 µM | HCC 2998 11.7 µM

Reference: ChEMBL document CHEMBL1201862, “PubChem BioAssay data set” (2004)
